What all share (assay type): biochemical
Experiment [1] addresses rat maltase (partially purified alpha-glucosidase from intestinal rat powder). In words: Intestinal alpha-glucosidase assay, maltose substrate (Glucose GO Kit). A digest of the protocol:
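Partially purified alpha-glucosidase from rat intestinal powder was preincubated 60 min at 37 °C with serial compound dilutions, then given maltose or sucrose and incubated 30 min at 37 °C.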

The target of experiment [2] is T1, recombinant alpha-glucosidase II (murine full-length glucosidase II, alpha and beta subunits, Glu 2) (Mus musculus, UniProt Q8BHN3).
T1 construct: made in house; host or cells: HEK-293T cells transduced with BacMam viruses (75% alpha, 25% beta); protein harvested from culture supernatant
In words: Alpha-glucosidase II assay (4-methylumbelliferyl-alpha-D-pyranoside substrate, fluorescence). To be noted: Glucosidase 2; read-out: Glu2 IC50.

The target in experiment [3] is T2, recombinant alpha-glucosidase I (human full-length glucosidase I, Glu 1) (Homo sapiens, UniProt Q13724).
T2 construct: 6-His (C); made in house; host or cells: HEK-293T cells transduced with BacMam virus (virus raised in Sf9)
T2 sequence (Q13724 1-837): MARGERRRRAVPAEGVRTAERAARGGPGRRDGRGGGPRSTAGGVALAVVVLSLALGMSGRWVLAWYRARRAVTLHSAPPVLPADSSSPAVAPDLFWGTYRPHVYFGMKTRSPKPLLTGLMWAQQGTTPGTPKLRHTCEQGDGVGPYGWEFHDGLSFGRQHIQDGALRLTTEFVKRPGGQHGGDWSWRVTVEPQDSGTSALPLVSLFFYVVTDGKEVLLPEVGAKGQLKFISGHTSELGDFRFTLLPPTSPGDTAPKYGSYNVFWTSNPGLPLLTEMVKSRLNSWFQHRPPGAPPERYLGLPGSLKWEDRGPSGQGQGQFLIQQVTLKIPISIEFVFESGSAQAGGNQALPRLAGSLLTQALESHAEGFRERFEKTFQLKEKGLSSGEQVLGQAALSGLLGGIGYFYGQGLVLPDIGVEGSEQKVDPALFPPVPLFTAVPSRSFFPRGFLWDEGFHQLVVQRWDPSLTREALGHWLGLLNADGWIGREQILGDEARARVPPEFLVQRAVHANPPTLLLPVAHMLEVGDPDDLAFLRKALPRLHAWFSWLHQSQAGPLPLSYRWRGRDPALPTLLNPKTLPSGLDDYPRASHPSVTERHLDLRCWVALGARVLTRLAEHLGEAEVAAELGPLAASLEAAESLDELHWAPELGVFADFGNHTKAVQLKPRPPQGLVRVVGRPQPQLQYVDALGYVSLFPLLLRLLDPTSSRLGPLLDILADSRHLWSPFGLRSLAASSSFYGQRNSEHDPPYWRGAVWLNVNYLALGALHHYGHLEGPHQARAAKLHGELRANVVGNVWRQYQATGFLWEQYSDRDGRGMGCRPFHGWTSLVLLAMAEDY
In words: Alpha-glucosidase I assay (Amplex Red glucose detection, synthetic trisaccharide substrate). Particulars: Glucosidase 1; read-out: Glu 1 IC50. A digest of the protocol:
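Human full-length glucosidase I, His-tagged, […] and Ni-purified. Enzyme preincubated with compound dilutions 60 min at 37° C, then synthetic trisaccharide substrate 90 min at 37° C; stopped with 1.5M Tris pH 8.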

Experiment [4] concerns the target rat sucrase (partially purified alpha-glucosidase from intestinal rat powder) (Rattus norvegicus, UniProt P23739). In words: Intestinal alpha-glucosidase assay, sucrose substrate (Glucose GO Kit). In outline: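 Rat intestinal enzyme prep + test cpd dilutions, 60 min 37 °C; add maltose (maltase) or sucrose (sucrase), 30 min 37 °C; stop 90 °C 5 min. Glucose readout (glucose oxidase kit). IC50 from 4-PL fit of % inhibition vs conc.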

Some results are limits rather than exact numbers.

The IC50 is the concentration that inhibits the measured activity by half.

T1 sequence (O08795 15-521): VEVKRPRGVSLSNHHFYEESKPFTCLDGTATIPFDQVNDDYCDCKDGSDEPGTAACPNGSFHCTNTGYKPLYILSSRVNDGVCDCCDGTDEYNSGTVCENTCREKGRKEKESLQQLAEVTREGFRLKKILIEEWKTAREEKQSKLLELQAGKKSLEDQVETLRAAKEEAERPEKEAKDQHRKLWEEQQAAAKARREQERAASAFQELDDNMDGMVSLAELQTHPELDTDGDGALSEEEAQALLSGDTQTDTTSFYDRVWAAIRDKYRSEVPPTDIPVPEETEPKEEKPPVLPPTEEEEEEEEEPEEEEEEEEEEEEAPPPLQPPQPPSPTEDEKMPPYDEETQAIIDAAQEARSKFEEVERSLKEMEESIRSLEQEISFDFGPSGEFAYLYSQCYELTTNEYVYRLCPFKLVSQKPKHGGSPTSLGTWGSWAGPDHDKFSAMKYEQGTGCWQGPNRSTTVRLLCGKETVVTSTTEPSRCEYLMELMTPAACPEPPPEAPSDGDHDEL
T1 sequence (Q8BHN3 33-944): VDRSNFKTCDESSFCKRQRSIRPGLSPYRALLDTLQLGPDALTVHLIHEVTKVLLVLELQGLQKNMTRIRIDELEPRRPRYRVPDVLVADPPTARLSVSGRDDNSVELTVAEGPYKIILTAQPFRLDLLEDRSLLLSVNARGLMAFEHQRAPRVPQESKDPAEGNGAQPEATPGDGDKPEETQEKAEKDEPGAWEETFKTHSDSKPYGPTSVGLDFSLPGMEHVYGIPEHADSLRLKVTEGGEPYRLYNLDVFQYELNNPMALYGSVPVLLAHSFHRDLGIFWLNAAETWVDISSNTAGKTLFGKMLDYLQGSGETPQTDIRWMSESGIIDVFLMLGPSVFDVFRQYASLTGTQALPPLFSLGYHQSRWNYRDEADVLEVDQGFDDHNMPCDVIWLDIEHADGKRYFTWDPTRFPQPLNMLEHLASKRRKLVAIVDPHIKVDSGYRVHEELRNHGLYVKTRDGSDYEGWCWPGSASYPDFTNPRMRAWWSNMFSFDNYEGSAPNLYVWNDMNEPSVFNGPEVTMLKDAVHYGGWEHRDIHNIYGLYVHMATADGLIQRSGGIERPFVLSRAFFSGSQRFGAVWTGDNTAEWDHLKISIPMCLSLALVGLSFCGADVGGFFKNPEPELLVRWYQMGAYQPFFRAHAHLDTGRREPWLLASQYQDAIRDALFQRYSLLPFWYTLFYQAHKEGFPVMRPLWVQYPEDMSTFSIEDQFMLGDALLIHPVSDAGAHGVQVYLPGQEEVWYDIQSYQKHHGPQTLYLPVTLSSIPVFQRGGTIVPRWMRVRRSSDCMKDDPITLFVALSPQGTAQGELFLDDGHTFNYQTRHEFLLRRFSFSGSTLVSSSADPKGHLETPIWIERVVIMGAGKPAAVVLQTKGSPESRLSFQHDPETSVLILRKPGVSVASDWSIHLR
rat sucrase (partially purified alpha-glucosidase from intestinal rat powder), sequence (P23739 whole entry): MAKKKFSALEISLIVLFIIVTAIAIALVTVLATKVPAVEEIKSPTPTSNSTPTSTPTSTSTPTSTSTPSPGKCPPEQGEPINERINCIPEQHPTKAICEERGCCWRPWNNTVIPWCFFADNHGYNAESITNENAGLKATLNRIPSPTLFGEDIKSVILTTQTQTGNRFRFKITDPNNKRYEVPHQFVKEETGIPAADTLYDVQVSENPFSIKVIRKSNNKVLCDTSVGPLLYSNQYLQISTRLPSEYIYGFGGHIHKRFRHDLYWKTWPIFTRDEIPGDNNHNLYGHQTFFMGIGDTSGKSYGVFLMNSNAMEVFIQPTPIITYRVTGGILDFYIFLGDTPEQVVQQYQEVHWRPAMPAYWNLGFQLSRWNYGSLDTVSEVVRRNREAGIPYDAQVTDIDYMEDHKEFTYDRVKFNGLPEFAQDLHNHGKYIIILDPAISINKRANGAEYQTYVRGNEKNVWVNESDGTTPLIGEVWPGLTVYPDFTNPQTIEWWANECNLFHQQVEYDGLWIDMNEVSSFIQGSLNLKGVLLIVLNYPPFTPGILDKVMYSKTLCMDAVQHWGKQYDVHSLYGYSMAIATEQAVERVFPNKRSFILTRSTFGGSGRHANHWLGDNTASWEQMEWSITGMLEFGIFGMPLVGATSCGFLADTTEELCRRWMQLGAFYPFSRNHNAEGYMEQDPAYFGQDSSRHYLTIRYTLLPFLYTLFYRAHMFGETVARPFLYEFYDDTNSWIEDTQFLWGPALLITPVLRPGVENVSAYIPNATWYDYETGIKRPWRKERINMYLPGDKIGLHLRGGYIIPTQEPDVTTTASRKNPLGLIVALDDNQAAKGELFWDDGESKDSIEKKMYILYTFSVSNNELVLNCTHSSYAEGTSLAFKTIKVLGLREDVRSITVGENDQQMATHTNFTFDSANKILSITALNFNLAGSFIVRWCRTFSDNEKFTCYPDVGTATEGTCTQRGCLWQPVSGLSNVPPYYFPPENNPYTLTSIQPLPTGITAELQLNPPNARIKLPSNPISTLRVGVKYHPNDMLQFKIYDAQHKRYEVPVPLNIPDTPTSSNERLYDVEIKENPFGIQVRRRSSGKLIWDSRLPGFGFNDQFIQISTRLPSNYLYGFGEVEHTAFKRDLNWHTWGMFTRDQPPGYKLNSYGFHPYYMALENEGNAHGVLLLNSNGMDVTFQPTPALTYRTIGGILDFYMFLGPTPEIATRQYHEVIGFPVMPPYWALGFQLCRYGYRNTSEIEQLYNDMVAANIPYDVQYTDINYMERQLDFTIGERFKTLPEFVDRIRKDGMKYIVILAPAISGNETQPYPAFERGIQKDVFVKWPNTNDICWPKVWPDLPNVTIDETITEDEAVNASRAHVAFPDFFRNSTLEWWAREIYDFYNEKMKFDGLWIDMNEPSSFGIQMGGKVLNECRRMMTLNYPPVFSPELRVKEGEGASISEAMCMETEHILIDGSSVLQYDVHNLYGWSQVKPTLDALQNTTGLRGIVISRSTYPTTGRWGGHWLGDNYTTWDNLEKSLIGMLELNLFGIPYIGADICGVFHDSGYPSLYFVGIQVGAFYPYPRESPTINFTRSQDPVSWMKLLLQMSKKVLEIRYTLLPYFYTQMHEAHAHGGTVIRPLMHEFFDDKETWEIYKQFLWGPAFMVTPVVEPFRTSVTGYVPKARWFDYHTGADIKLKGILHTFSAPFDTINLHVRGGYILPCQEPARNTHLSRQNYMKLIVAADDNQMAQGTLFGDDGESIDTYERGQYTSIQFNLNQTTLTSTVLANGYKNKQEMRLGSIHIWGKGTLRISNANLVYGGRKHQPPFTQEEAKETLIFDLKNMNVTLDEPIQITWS

As to `O=[N+]([O-])c1cc(N2CC3CC2CO3)ccc1NCc1ccc(CN2C[C@@H](O)[C@H](O)[C@@H](O)[C@@H]2CO)cc1` (stereo in doubt) [Compound 1015, (2S,3S,4S,5R)-2-(hydroxymethyl)-1-[(4-{[(2-nitro-4-{2-oxa-5-azabicyclo[2.2.1]heptan-5-yl}phenyl)amino]methyl}phenyl)methyl]piperidine-3,4,5-triol], the IC50 is 8 nM in experiment [1], 2 nM in experiment [2], 9 nM in experiment [3] and 78 nM in experiment [4].
Consider `CN(Cc1cccc(CN2C[C@H](O)[C@@H](O)[C@H](O)[C@H]2CO)c1)c1ccc(CN2CCCO2)cc1[N+](=O)[O-]` [Compound 1020], for which the 50% inhibitory concentration (IC50) in experiment [1] stood at 44 nM; in experiment [3], 118 nM; in experiment [4], 129 nM.
Take `Cc1cc(Br)cc(NCc2cccc(CN3C[C@H](O)[C@@H](O)[C@H](O)[C@H]3CO)c2)c1` [Compound 1021, (2R,3R,4R,5S)-1-[(3-{[(3-bromo-5-methylphenyl)amino]methyl}phenyl)methyl]-2-(hydroxymethyl)piperidine-3,4,5-triol]: the IC50 in experiment [1] is 8 nM; in experiment [2], 35000 nM; in experiment [3], 6 nM; in experiment [4] it was 1 nM.
Taken in the same sequence, the figures for `N#Cc1cc(Br)cc(NCc2cccc(CN3C[C@H](O)[C@@H](O)[C@H](O)[C@H]3CO)c2)c1` [Compound 1023, 3-bromo-5-{[(3-{[(2R,3R,4R,5S)-3,4,5-trihydroxy-2-(hydroxymethyl)piperidin-1-yl]methyl}phenyl)methyl]amino}benzonitrile] were 30 nM, 42600 nM, 15 nM and 66 nM.
Take `Cc1cc(Br)cc(NCc2ccc(CN3C[C@H](O)[C@@H](O)[C@H](O)[C@H]3CO)cc2)c1` [Compound 1024, (2R,3R,4R,5S)-1-[(4-{[(3-bromo-5-methylphenyl)amino]methyl}phenyl)methyl]-2-(hydroxymethyl)piperidine-3,4,5-triol]: the IC50 worked out at 2 nM in experiment [1], 8 nM in experiment [3] and 14 nM in experiment [4].
`CS(=O)(=O)c1cc(Br)cc(NCc2ccc(CN3C[C@H](O)[C@@H](O)[C@H](O)[C@H]3CO)cc2)c1` [Compound 1025, (2R,3R,4R,5S)-1-[(4-{[(3-bromo-5-methanesulfonylphenyl)amino]methyl}phenyl)methyl]-2-(hydroxymethyl)piperidine-3,4,5-triol]: the concentration for half-maximal inhibition (IC50) in experiment [1] worked out at 4 nM; in experiment [2] it was 229 nM; in experiment [3], 21 nM; in experiment [4], 2 nM.
Turning to `N#Cc1cc(Br)cc(NCc2ccc(CN3C[C@H](O)[C@@H](O)[C@H](O)[C@H]3CO)cc2)c1` [Compound 1026, 3-bromo-5-{[(4-{[(2R,3R,4R,5S)-3,4,5-trihydroxy-2-(hydroxymethyl)piperidin-1-yl]methyl}phenyl)methyl]amino}benzonitrile], the IC50 was less than 1 nM in experiment [1], less than 1 nM in experiment [2], 7 nM in experiment [3] and less than 1 nM in experiment [4].
Turning to `OC[C@@H]1[C@@H](O)[C@H](O)[C@@H](O)CN1Cc1cccc(CNc2ccc(Br)cc2)c1` [Compound 1027, (2R,3R,4R,5S)-1-[(3-{[(4-bromophenyl)amino]methyl}phenyl)methyl]-2-(hydroxymethyl)piperidine-3,4,5-triol], the IC50 in experiment [1] is 81 nM; in experiment [2], 23600 nM; in experiment [3], 22 nM; in experiment [4] it was 23 nM.
Taken in the same sequence, the figures for `OC[C@@H]1[C@@H](O)[C@H](O)[C@@H](O)CN1Cc1ccc(CNc2ccc(Br)cc2)cc1` [Compound 1028, (2R,3R,4R,5S)-1-[(4-{[(4-bromophenyl)amino]methyl}phenyl)methyl]-2-(hydroxymethyl)piperidine-3,4,5-triol] were 11 nM, 827 nM, less than 1 nM and 11 nM.
Taken in the same sequence, the figures for `O=[N+]([O-])c1cc(Br)ccc1NCc1cccc(CN2C[C@H](O)[C@@H](O)[C@H](O)[C@H]2CO)c1` [Compound 1029, (2R,3R,4R,5S)-1-[(3-{[(4-bromo-2-nitrophenyl)-amino]methyl}phenyl)methyl]-2-(hydroxymethyl)piperidine-3,4,5-triol] were 10 nM, 20400 nM, 8 nM and less than 1 nM.
Taken in the same sequence, the figures for `O=[N+]([O-])c1cc(Br)ccc1NCc1ccc(CN2C[C@H](O)[C@@H](O)[C@H](O)[C@H]2CO)cc1` [Compound 1030, (2R,3R,4R,5S)-1-[(4-{[(4-bromo-2-nitrophenyl)amino]methyl}phenyl)methyl]-2-(hydroxymethyl)piperidine-3,4,5-triol] were less than 1 nM, less than 1 nM, less than 1 nM and less than 1 nM.
Turning to `Cc1cc(NCc2cccc(CN3C[C@H](O)[C@@H](O)[C@H](O)[C@H]3CO)c2)cc(N2CCOCC2)c1` [Compound 1031, (2R,3R,4R,5S)-2-(hydroxymethyl)-1-{[3-({[3-methyl-5-(morpholin-4-yl)phenyl]amino}methyl)phenyl]methyl}piperidine-3,4,5-triol], the IC50 worked out at 174 nM in experiment [1], 10700 nM in experiment [2], 93 nM in experiment [3] and 288 nM in experiment [4].
Regarding `Cc1cc(NCc2cccc(CN3C[C@H](O)[C@@H](O)[C@H](O)[C@H]3CO)c2)cc(C2=COCCO2)c1` [Compound 1032, (2R,3R,4R,5S)-1-{[3-({[3-(5,6-dihydro-1,4-dioxin-2-yl)-5-methylphenyl]amino}methyl)phenyl]methyl}-2-(hydroxymethyl)piperidine-3,4,5-triol], the IC50 in experiment [1] was determined as 73 nM; in experiment [2] it was 47700 nM; in experiment [3], 16 nM; in experiment [4], 36 nM.
With `Cc1cc(NCc2cccc(CN3C[C@H](O)[C@@H](O)[C@H](O)[C@H]3CO)c2)cc(-c2ccc[nH]2)c1` [Compound 1033, (2R,3R,4R,5S)-2-(hydroxymethyl)-1-{[3-({[3-methyl-5-(1H-pyrrol-2-yl)phenyl]amino}methyl)phenyl]methyl}piperidine-3,4,5-triol], the IC50 is 37 nM in experiment [1], more than 100000 nM in experiment [2], 9 nM in experiment [3] and 34 nM in experiment [4].
For `Cc1cc(NCc2cccc(CN3C[C@H](O)[C@@H](O)[C@H](O)[C@H]3CO)c2)cc(-c2cccnn2)c1` [Compound 1034, (2R,3R,4R,5S)-2-(hydroxymethyl)-1-{[3-({[3-methyl-5-(pyridazin-3-yl)phenyl]amino}methyl)phenyl]methyl}piperidine-3,4,5-triol] the same measures were 33 nM, 10000 nM, 20 nM and 57 nM.
Taken in the same sequence, the figures for `CS(=O)(=O)c1cc(NCc2cccc(CN3C[C@H](O)[C@@H](O)[C@H](O)[C@H]3CO)c2)cc(N2CCOCC2)c1` [Compound 1036, (2R,3R,4R,5S)-2-(hydroxymethyl)-1-{[3-({[3-methanesulfonyl-5-(morpholin-4-yl)phenyl]amino}methyl)phenyl]methyl}piperidine-3,4,5-triol] were 77 nM, 49500 nM, 30 nM and 219 nM.
For the compound `N#Cc1cc(NCc2cccc(CN3C[C@H](O)[C@@H](O)[C@H](O)[C@H]3CO)c2)cc(N2CCOCC2)c1` [Compound 1042, 3-(morpholin-4-yl)-5-{[(3-{[(2R,3R,4R,5S)-3,4,5-trihydroxy-2-(hydroxymethyl)piperidin-1-yl]methyl}phenyl)methyl]amino}benzonitrile], the IC50 was found to be 29 nM in experiment [1], 8680 nM in experiment [2], 30 nM in experiment [3] and 163 nM in experiment [4].
